Laboratory results from PubChem BioAssay (NCI).
Several values for one entry are separate records, joined by “and”; a condition that tells them apart may be missing. Identical values can stand only once.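 Each compound was tested at five concentrations against cells in 96-well plates for 48 hours. GI50 marks 50% less growth. The concentration for full growth arrest is given as TGI.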

Tests used:
Assay in all cases: growth of human tumour cells (NCI), 48 h
SK-MEL-2 melanoma = tested on: SK-MEL-2 melanoma
HCT-15 colon = tested on: HCT-15 colon
RPMI-8226 leukemia = tested on: RPMI-8226 leukemia
HT29 colon = tested on: HT29 colon
MOLT-4 leukemia = tested on: MOLT-4 leukemia
UACC-62 melanoma = tested on: UACC-62 melanoma
MDA-MB-435 = tested on: MDA-MB-435
COLO 205 colon = tested on: COLO 205 colon
BT-549 breast = tested on: BT-549 breast
A498 renal = tested on: A498 renal

Structure (SMILES)	TGI (SK-MEL-2 melanoma)	TGI (HCT-15 colon)	TGI (RPMI-8226 leukemia)	TGI (HT29 colon)	TGI (MOLT-4 leukemia)	TGI (UACC-62 melanoma)	TGI (MDA-MB-435)	TGI (COLO 205 colon)	TGI (BT-549 breast)	TGI (A498 renal)	GI50 (MDA-MB-435)
CCC/C(Cl)=N\OC(=O)Nc1ccc(F)cc1	34.8 µM	19.3 µM	15.6 µM	> 69.6 µM	14.9 µM	27.5 µM	31.9 µM	8.97 µM	28.4 µM	35.3 µM	–
CC1=NNC(=O)C1C1C(=O)NN=C(c2c[nH]c3ccccc23)C1Br (stereo unspecified)	84.8 µM	> 100 µM	> 100 µM	> 100 µM	80.3 µM	> 100 µM	> 100 µM	> 100 µM	> 100 µM	> 100 µM	–
c1ccc(/C(=N/Nc2nc3ccccc3s2)C2CCCCC2)nc1	32.3 µM	15.8 µM	21.9 µM	16.1 µM	27.8 µM	31.3 µM	39.3 µM	13.1 µM	35.1 µM	31.4 µM	–
Nc1n(CC(=O)c2ccccc2)nc2sc(-c3ccccc3)n[n+]12	> 100 µM	> 100 µM	58.8 µM	51.3 µM	> 100 µM	25.1 µM	8.95 µM	47 µM	> 100 µM	86.9 µM	–
CCOC(=O)c1c(C)n(Cc2ccc(Cl)cc2Cl)c2c1cc(O)c1[nH]c3c(c12)CCCC3	60.9 µM	> 100 µM	50.7 µM	68.2 µM	29.4 µM	49.2 µM	55.5 µM	> 100 µM	41.3 µM	38.6 µM	–
COc1ccc([C@H]2[C@H]3COC(=O)[C@H]3C(C#N)=C3Sc4ccccc4N32)cc1	56.7 µM	> 87.4 µM	72 µM	37.7 µM	> 67.7 µM	> 100 µM	> 100 µM	34.5 µM	48.9 µM	98.3 µM	–
CC(=O)c1c(-c2cccc3ccccc23)c(C#N)c(=S)n(C2OC(CO)C(O)C(O)C2O)c1C (stereo unspecified)	> 100 µM	> 100 µM	> 100 µM	> 100 µM	> 100 µM	> 100 µM	> 100 µM	> 100 µM	> 100 µM	> 100 µM	> 100 µM and 46.9 µM
OC1[C@@H]2[C@@H](O)CCCN2C[C@@H](O)[C@H]1O (stereo partly specified)	> 100 µM	> 100 µM	> 100 µM	> 100 µM	> 100 µM	> 100 µM	> 100 µM	> 100 µM	> 100 µM	> 100 µM	–
COc1ccc(N2CC(=O)N(C(=O)COc3ccc(OCC(=O)N4C(=O)CN(c5ccc(OC)cc5)C4=S)cc3)C2=S)cc1	> 100 µM	> 100 µM	> 100 µM	> 100 µM	> 100 µM	> 100 µM	> 100 µM	> 100 µM	> 100 µM	> 100 µM	–
CC1CC[C@@]2(OC1)OC1C[C@H]3[C@@H]4CC=C5CC(OC6OC(CO)C(OC7OC(CO)C(O)C(OC8OCC(O)C(O)C8O)C7OC7OC(CO)C(OC8OC(C)C(OC9OC(C)C(O)C(O)C9O)C(O)C8O)C(O)C7O)C(O)C6O)CCC5(C)[C@H]4CCC3(C)C1[C@@H]2C (stereo partly specified)	13.5 µM	18.9 µM	25 µM	15.4 µM	24.7 µM	17.7 µM	18.4 µM	15.6 µM	16.4 µM	8.7 µM	–
CCc1n[nH]c(=O)n1CCCCCCCCCCCCn1c(CC)n[nH]c1=O	> 100 µM	> 100 µM	> 100 µM	> 100 µM	67.7 µM	61.3 µM	76.3 µM	75.5 µM	77.5 µM	> 100 µM	–
C=CCOC(=O)N1c2ccc(O[Si](C)(C)C(C)(C)C)cc2[C@@]23O[C@@]24[C@@H]1C#C/C=C\C#C[C@]3(O)C(OC)(OC)C[C@@H]4C	> 100 µM	> 100 µM	> 100 µM	> 100 µM	> 42.9 µM	> 42 µM	> 100 µM	> 100 µM	> 100 µM	5.48 µM	–
O=C(O)CC(Cc1ccccc1Cl)C(=O)O (stereo unspecified)	> 100 µM	> 100 µM	> 100 µM	> 100 µM	> 100 µM	> 100 µM	> 100 µM	> 100 µM	> 100 µM	> 100 µM	–
O=c1[nH]c(Nc2ccccc2)nc2c1ncn2CC(O)CSCCO (stereo unspecified)	> 100 µM	> 100 µM	> 100 µM	> 100 µM	> 100 µM	> 100 µM	> 100 µM	> 100 µM	> 100 µM	> 100 µM	–
CCO/C(=N/S(=O)(=O)C(F)(F)F)N(C(C)C)C(C)C	> 100 µM	> 100 µM	> 100 µM	> 100 µM	> 100 µM	> 100 µM	> 100 µM	> 100 µM	> 100 µM	> 100 µM	–
O=c1[nH]cc(NCCCl)c(=O)[nH]1	> 100 µM	> 100 µM	> 100 µM	> 100 µM	> 100 µM	> 100 µM	> 100 µM	> 100 µM	> 100 µM	> 100 µM	–

Structure (SMILES)	TGI (SK-MEL-2 melanoma)	TGI (HCT-15 colon)	TGI (RPMI-8226 leukemia)	TGI (HT29 colon)	TGI (MOLT-4 leukemia)	TGI (UACC-62 melanoma)	TGI (MDA-MB-435)	TGI (COLO 205 colon)	TGI (BT-549 breast)	TGI (A498 renal)	GI50 (MDA-MB-435)
Cc1ccc(Nc2nc3[nH]ccc3c(=O)[nH]2)cc1	> 100 µM	> 100 µM	> 100 µM	> 100 µM	> 100 µM	> 100 µM	> 100 µM	> 100 µM	> 100 µM	> 100 µM	–
Oc1cc(Cc2ccccc2)c(Cc2ccccc2)cc1O	> 10 µM	> 10 µM	> 10 µM	> 10 µM	> 10 µM	> 10 µM	> 10 µM	> 10 µM	> 10 µM	> 10 µM	–
NC(=O)CNC(=O)[C@@H]1CC(OCCC(=O)O)CN1C(=O)C1CCCN1C(=O)OCc1ccccc1 (stereo partly specified)	> 100 µM	> 100 µM	> 100 µM	> 100 µM	> 100 µM	> 100 µM	> 100 µM	> 100 µM	> 100 µM	> 100 µM	–
O=C(Nc1ccccc1F)c1cc2ccc(O)cc2oc1=Nc1cccc(F)c1	62.6 µM	24.4 µM	> 100 µM	> 100 µM	44.6 µM	29.6 µM	35.7 µM	77.3 µM	39.4 µM	43.8 µM	–
CC(C)/C(Cl)=N/OC(=O)Nc1ccc(Br)cc1	31.5 µM	5.34 µM	5.24 µM	18.5 µM	5.45 µM	17 µM	30.7 µM	3.43 µM	9.19 µM	33.8 µM	–
CN(C)CC(O)c1ccc(Cl)c2ccccc12 (stereo unspecified)	39.7 µM	> 100 µM	11 µM	> 100 µM	55.8 µM	34 µM	61.2 µM	49.2 µM	> 100 µM	45.9 µM	–
N#CN1C2CCC1CC(=O)C2	> 100 µM	> 100 µM	> 100 µM	> 100 µM	> 100 µM	> 100 µM	> 100 µM	> 100 µM	> 100 µM	> 100 µM	–
Cc1cc(C)nc(NS(=O)(=O)c2ccc(NC(=O)c3c4ccccc4nc4ccccc34)cc2)n1	> 100 µM	> 100 µM	> 100 µM	> 100 µM	> 100 µM	> 100 µM	> 100 µM	> 100 µM	> 100 µM	> 100 µM	–
CC(C)(C)c1ccc(OCCOc2ccc(C(C)(C)C)cc2N)c(N)c1	> 100 µM	> 100 µM	> 100 µM	> 100 µM	> 100 µM	> 100 µM	> 100 µM	> 100 µM	> 100 µM	> 100 µM	–
S=C1c2ccc(Cl)cc2-n2cnnc2C2CSCN12 (stereo unspecified)	> 100 µM	> 100 µM	> 100 µM	> 100 µM	> 100 µM	> 100 µM	> 100 µM	> 100 µM	> 100 µM	> 100 µM	–
O=C1c2cccc([N+](=O)[O-])c2C(=O)N1Cc1ccccc1	> 100 µM	> 100 µM	> 100 µM	> 100 µM	> 100 µM	> 100 µM	> 100 µM	> 100 µM	> 100 µM	> 100 µM	–
COc1cc2c(c(O)c1O)C(=O)C1CCC(=O)N1C2c1cccc2ccccc12 (stereo unspecified)	> 50 µM	> 50 µM	> 50 µM	> 50 µM	> 50 µM	> 50 µM	> 50 µM	> 50 µM	> 50 µM	> 50 µM	–
COc1ccc2c(c1)C(=O)CC1c3cnccc3C(=O)N21 (stereo unspecified)	> 100 µM	> 100 µM	> 100 µM	> 100 µM	> 100 µM	> 100 µM	> 31.6 µM	> 100 µM	> 100 µM	> 100 µM	–
CC(=O)O[C@H]1CC(C)(C)C(=C=C/C(C)=C/C=C/C=C/C=C(C)/C=C2C=C(/C=C/[C@@]34O[C@]3(C)C[C@@H](O)CC4(C)C)C(=O)O/2)[C@](C)(O)C1	17.6 µM	35 µM	27.9 µM	> 100 µM	24.1 µM	24 µM	> 100 µM	> 100 µM	8.16 µM	> 100 µM	–
Fc1ccc(C(OCCN2CCN(CCCc3ccccc3)CC2)c2ccc(F)cc2)cc1	12.2 µM	13.4 µM	8.63 µM	12.3 µM	19 µM	21.4 µM	14 µM	10.1 µM	19.3 µM	19.7 µM	–
CC(=O)Nc1ccc2c(C)c3c(nc2n1)[nH]c1ccccc13	55.5 µM	64.5 µM	55.2 µM	> 100 µM	53.6 µM	60.9 µM	87.3 µM	32 µM	80.2 µM	> 100 µM	–
